Reference: patent publication US6403139B1, “Process for treating fruit and vegetables using tocopherols as antioxidants” (Xeda International, priority 1999, dated 2002)

System: Granny Smith apples
Test: Anti-scald treatment on apples, treating composition applied for 3 minutes by immersion or spraying, then 8 days storage at 20° C.
Experimental: The examples which follow illustrate the invention in further detail. In these examples, the treating composition, preheated to 50° C., is applied for 3 minutes to Granny Smith apples, by immersion or spraying. Treating composition (Composition A) consists of water and 1500 ppm of α-tocopherol. The treatment is carried out by applying the treating composition, brought to 50° C., to the apples for 3 minutes. The treated apples are then stored at ambient temperature (20° C.) for 8 days. The proportion of healthy apples, the proportion of apples for which less than 1 cm^2 of surface area is deteriorated by scald, and the proportion of apples for which more than 1 cm^2 of surface area is affected are then quantified. The apples are treated under the same conditions as in Example 1. By way of additional comparison, the same amount of apples was treated with composition D maintained at ambient temperature (i.e. between 20 and 22° C.). The apples thus treated were then stored for 8 days at ambient temperature (20° C.).

Cc1c(C)c2c(c(C)c1O)CC[C@@](C)(CCC[C@H](C)CCC[C@H](C)CCCC(C)C)O2 [vitamin e, 5,7,8-trimethyltocol]
antioxidant activity at ambient temperature: virtually zero
